{"source": "ChEMBL document CHEMBL1140148", "about": "“Structure-activity studies on a series of a 2-aminopyrimidine-containing histamine H4 receptor ligands” (J Med Chem, 2008)", "key": {"Histamine H4 receptor [1]": {"target": "T1, Histamine H4 receptor (Homo sapiens, UniProt Q9H3N8)", "T1 sequence (Q9H3N8 whole entry)": "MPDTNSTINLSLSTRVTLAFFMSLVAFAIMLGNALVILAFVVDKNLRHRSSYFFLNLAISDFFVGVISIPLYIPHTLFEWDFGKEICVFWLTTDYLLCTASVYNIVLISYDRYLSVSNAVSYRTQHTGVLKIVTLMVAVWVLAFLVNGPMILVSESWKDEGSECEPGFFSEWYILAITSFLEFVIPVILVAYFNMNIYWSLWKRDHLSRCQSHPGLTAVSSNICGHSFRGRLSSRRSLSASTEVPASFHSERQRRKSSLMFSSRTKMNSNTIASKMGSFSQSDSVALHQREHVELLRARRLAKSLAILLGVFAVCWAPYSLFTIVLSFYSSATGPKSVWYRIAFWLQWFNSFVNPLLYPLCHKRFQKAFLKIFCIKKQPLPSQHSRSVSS", "conditions": "HEK293"}, "[2]": {"target": "Histamine H4 receptor (Rattus norvegicus) (UniProt Q91ZY1)", "sequence (Q91ZY1 whole entry)": "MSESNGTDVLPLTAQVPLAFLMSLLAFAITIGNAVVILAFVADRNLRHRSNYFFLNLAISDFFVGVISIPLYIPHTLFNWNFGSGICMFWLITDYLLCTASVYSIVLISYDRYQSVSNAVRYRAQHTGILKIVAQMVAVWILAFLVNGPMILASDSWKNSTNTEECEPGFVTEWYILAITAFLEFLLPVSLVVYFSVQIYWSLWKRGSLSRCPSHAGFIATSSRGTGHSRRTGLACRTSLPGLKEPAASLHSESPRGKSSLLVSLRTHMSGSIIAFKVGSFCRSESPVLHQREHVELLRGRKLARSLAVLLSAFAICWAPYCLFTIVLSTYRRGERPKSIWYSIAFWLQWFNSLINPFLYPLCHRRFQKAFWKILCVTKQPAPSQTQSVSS", "conditions": "HEK293"}, "[3]": {"target": "Histamine H4 receptor (Rattus norvegicus) (UniProt Q91ZY1)", "test": "Agonist activity at rat histamine H4 receptor expressed in HEK293 cells coexpressing Gqi5 protein assessed as calcium flux by FLIPR assay relative to histamine", "assay_type": "functional, cell-based"}, "Histamine H4 receptor [4]": {"target": "T1, Histamine H4 receptor", "test": "Agonist activity at human histamine H4 receptor expressed in HEK293 cells coexpressing Gqi5 protein assessed as calcium flux by FLIPR assay", "assay_type": "functional, cell-based"}, "Histamine H4 receptor [5]": {"target": "T1, Histamine H4 receptor", "test": "Agonist activity at human histamine H4 receptor expressed in HEK293 cells coexpressing Gqi5 protein assessed as calcium flux by FLIPR assay relative to histamine", "assay_type": "functional, cell-based"}, "Histamine H4 receptor [6]": {"target": "Histamine H4 receptor (Rattus norvegicus, UniProt Q91ZY1)", "sequence (Q91ZY1 whole entry)": "as above", "test": "Agonist activity at rat histamine H4 receptor expressed in HEK293 cells coexpressing Gqi5 protein assessed as calcium flux by FLIPR assay", "assay_type": "functional, cell-based"}}}
{"smiles": "CN1CCN(c2cc(N(C)Cc3ccccc3)nc(N)n2)CC1", "values": [{"measurement": "pKb", "setting": "Histamine H4 receptor [1]", "result": 6.77}, {"measurement": "pKb", "setting": "[2]", "result": 6.47}]}
{"smiles": "CN1CCN(c2cc(C(C)(C)C)nc(N(C)C)n2)CC1", "values": [{"measurement": "Efficacy", "setting": "[3]", "result": 88, "unit": "%"}, {"measurement": "EC50", "setting": "Histamine H4 receptor [4]", "result": 11.5, "unit": "µM"}, {"measurement": "Efficacy", "setting": "Histamine H4 receptor [5]", "result": 100, "unit": "%"}, {"measurement": "EC50", "setting": "Histamine H4 receptor [6]", "result": 18.2, "unit": "µM"}]}
{"smiles": "CN1CCN(c2nc(N)ncc2N)CC1", "values": [{"measurement": "Efficacy", "setting": "[3]", "result": 88, "unit": "%"}, {"measurement": "EC50", "setting": "Histamine H4 receptor [4]", "result": 0.0339, "unit": "µM"}, {"measurement": "Efficacy", "setting": "Histamine H4 receptor [5]", "result": 38, "unit": "%"}, {"measurement": "EC50", "setting": "Histamine H4 receptor [6]", "result": 0.0427, "unit": "µM"}]}
{"smiles": "CN1CCN(c2nc(N)nc(-c3ccc(C#N)cc3)c2-c2ccccc2)CC1", "values": [{"measurement": "pKb", "setting": "Histamine H4 receptor [1]", "result": 5.69}, {"measurement": "pKb", "setting": "[2]", "result": 5.29}]}
{"smiles": "CN1CCN(c2cc(-c3ccccc3-c3ccccc3)nc(N)n2)CC1", "values": [{"measurement": "pKb", "setting": "Histamine H4 receptor [1]", "result": 6.79}, {"measurement": "pKb", "setting": "[2]", "result": 5.72}]}
{"smiles": "CN1CCN(c2cc(-c3ccc(-c4ccccc4)cc3)nc(N)n2)CC1", "values": [{"measurement": "pKb", "setting": "Histamine H4 receptor [1]", "result": 6.29}, {"measurement": "pKb", "setting": "[2]", "result": 6.03}]}
{"smiles": "COc1ncccc1-c1cc(N2CCN(C)CC2)nc(N)n1", "values": [{"measurement": "Efficacy", "setting": "[3]", "result": 72, "unit": "%"}, {"measurement": "EC50", "setting": "Histamine H4 receptor [4]", "result": 0.0269, "unit": "µM"}, {"measurement": "Efficacy", "setting": "Histamine H4 receptor [5]", "result": 32, "unit": "%"}, {"measurement": "EC50", "setting": "Histamine H4 receptor [6]", "result": 0.0933, "unit": "µM"}]}
